Reference: patent publication US10765764B2, “Probes for imaging huntingtin protein” (CHDI Foundation, Inc., priority 2015, dated 2020)

Molecular target: T1, Q46 protein aggregates (Homo sapiens, UniProt P42858)
T1 construct: fused on or other part: An N-terminal GST tag, cleaved off with thrombin before the assay to trigger aggregation
Assay: Q46 Radioligand Binding Assay (RBA), displacement of [^3H3]MK-3328
Settings: 10 nM [^3H3]MK-3328, 5 μM Q46 protein aggregates
Description: For radioligand binding assays (RBA) GST-Q46 protein was generated based on a previous publication (Scherzinger et al. Cell, Vol. 90, 549-558, Aug. 8, 1997). For experiments 33 μM GST-Q46 was incubated with 150 μg/mL thrombin in assay buffer (150 mM NaCl, 50 mM Tris pH 8.0) and 2 mM CaCl2 for 16 hours at 37° C. Aggregated Q46 was pelleted by centrifugation for 5 minutes at 13,000 rpm in a bench top centrifuge and re-dissolved in the same volume of assay buffer. Test compounds were prepared by titration in DMSO at 11 concentrations from 33 μM to 1 nM. For the RBA, Q46 protein aggregates and test compounds were pre-incubated in assay buffer for 20 minutes at room temperature, in 140 μL/well in a 96-well plate (pp, round bottom). Then, ligand was added in 10 μL/well and incubated for 60 minutes at 37° C. Final assay concentrations were 1 μM to 30 pM test compound, 5 μM Q46 protein (equivalent monomer concentration) and 10 nM ligand [^3H3]MK-3328 (Harrision et al., ACS Med. Chem. Lett., 2 (2011), pp 498-502). Samples were transferred onto GF/B filter plates and washed 2× with 200 μL PBS using a Filtermate Harvester. After drying filter plates for 1 hour at 37° C., the back of the plates was sealed with foil and 30 μl/well scintillation fluid (Packard MicroScint 40) was added, incubated for incubated for 15 minutes in the dark and counted in a TopCount reader. For analysis, replicate data from independent assay plates were normalized towards 0% and 100% inhibition using control wells of vehicle (0% inhibition) and 3 μM unlabelled MK-3328 (100% inhibition). IC50 values were determined with a sigmoidal inhibition model with four variables (top, bottom, slope, IC50) in a global fit using the normalized replicate data.

T1 sequence (P42858 with tags, fused parts or gaps with the stated changes, form open): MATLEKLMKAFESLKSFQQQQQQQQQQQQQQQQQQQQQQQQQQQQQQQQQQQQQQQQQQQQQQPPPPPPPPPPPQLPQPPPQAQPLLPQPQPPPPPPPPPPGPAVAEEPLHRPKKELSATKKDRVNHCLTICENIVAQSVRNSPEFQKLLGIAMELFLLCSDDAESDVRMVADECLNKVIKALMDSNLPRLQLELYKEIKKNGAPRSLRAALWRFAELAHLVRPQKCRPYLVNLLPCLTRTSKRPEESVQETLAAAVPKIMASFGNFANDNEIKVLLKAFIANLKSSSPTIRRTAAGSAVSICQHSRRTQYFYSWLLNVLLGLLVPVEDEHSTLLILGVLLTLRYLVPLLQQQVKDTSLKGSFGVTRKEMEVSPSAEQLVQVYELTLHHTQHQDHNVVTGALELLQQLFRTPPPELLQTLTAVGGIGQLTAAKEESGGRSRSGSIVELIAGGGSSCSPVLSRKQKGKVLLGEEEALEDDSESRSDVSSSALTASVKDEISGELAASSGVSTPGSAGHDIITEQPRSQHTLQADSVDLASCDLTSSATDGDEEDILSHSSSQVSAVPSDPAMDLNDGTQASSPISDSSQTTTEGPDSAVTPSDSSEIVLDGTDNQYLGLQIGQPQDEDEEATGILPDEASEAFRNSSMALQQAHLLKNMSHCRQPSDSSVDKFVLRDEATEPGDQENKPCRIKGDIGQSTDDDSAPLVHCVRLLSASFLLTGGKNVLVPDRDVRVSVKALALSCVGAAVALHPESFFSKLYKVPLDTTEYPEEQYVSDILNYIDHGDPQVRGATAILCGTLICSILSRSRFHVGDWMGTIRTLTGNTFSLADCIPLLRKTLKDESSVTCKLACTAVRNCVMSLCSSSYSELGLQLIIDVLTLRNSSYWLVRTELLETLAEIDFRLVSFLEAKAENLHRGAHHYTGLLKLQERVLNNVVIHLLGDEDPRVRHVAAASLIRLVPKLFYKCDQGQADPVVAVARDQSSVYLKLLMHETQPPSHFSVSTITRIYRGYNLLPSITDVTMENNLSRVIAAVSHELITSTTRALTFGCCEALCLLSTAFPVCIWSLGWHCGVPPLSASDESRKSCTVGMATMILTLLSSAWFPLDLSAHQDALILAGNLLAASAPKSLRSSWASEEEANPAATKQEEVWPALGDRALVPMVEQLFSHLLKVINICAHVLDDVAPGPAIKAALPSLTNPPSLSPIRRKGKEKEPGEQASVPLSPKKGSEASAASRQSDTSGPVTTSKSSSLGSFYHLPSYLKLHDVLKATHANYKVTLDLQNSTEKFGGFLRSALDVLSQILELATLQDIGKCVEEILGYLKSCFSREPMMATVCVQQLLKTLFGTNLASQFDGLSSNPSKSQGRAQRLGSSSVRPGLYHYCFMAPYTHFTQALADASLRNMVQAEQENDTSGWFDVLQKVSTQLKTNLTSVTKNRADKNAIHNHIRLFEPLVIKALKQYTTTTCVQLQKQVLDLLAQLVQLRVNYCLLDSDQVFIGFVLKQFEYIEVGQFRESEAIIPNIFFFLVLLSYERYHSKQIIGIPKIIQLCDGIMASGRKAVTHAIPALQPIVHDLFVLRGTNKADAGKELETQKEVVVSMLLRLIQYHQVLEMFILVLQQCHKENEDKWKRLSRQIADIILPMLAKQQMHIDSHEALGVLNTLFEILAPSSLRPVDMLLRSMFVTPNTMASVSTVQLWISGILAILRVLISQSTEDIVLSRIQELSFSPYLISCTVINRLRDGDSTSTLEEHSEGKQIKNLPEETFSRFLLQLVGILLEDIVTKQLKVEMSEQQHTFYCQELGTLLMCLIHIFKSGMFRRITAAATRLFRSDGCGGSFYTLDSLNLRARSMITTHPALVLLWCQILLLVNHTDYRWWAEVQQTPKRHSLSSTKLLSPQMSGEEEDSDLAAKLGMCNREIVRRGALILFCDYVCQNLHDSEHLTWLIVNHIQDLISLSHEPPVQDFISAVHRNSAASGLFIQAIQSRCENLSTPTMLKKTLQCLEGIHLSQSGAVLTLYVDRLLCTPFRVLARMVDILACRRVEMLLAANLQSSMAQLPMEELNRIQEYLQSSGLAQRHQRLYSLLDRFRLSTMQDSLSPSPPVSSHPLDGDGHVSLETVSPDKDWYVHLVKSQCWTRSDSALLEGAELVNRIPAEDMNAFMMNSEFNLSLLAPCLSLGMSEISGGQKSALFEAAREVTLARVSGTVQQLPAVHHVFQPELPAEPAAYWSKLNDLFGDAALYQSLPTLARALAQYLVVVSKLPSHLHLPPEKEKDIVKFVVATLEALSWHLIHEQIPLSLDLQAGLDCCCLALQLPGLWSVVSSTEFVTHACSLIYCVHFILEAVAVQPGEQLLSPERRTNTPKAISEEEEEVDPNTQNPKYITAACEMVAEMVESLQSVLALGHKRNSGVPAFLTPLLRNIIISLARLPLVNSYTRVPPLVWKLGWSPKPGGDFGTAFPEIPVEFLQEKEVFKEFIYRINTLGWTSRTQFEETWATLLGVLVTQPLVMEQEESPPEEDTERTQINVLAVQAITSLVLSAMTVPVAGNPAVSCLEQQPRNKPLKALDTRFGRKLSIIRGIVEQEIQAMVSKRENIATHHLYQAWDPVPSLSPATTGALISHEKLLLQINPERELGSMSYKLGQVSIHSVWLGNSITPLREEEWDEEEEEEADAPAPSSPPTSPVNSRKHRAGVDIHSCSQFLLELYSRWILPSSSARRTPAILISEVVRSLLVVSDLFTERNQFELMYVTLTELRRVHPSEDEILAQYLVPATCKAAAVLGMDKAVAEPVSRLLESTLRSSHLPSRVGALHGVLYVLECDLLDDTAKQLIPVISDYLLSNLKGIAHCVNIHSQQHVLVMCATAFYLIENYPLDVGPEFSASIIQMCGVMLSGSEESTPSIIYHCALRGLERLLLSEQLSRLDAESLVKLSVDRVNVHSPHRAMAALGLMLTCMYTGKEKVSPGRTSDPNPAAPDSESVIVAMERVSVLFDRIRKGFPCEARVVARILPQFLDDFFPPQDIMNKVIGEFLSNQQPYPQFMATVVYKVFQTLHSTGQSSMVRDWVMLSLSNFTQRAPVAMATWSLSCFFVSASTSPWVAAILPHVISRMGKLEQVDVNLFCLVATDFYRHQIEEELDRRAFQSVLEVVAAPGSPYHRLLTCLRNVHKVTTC

Row | Structure (SMILES) | IC50 [nM]
1 | COc1ccc(COc2ccc3c(c2)sc2nc(C(=O)Nc4cncc(OC)c4)cn23)nc1 [10-[(5-methoxypyridin-2-yl)methoxy]-N-(5-methoxypyridin-3-yl)-7-thia-2,5-diazatricyclo[6.4.0.0^2,6]dodeca-1(12),3,5,8,10-pentaene-4-carboxamide] | < 100
2 | COc1cncc(NC(=O)c2cn3c(n2)sc2cc(OC)ccc23)c1 [10-methoxy-N-(5-methoxypyridin-3-yl)-7-thia-2,5-diazatricyclo[6.4.0.0^2,6]dodeca-1(12),3,5,8,10-pentaene-4-carboxamide] | < 100
3 | CNC(=O)c1ccc(NC(=O)c2cn3c(n2)sc2cc(OC)ccc23)cn1 [10-methoxy-N-[6-(methylcarbamoyl)pyridin-3-yl]-7-thia-2,5-diazatricyclo[6.4.0.0^2,6]dodeca-1(12),3,5,8,10-pentaene-4-carboxamide] | < 100
4 | COc1ccc2c(c1)sc1nc(C(=O)Nc3ccc(OC)nc3)cn12 [10-methoxy-N-(6-methoxypyridin-3-yl)-7-thia-2,5-diazatricyclo[6.4.0.0^2,6]dodeca-1(12),3,5,8,10-pentaene-4-carboxamide] | < 100
5 | COc1ccc2c(c1)sc1nc(C(=O)Nc3cccnc3)cn12 [10-methoxy-N-(pyridin-3-yl)-7-thia-2,5-diazatricyclo[6.4.0.0^2,6]dodeca-1(12),3,5,8,10-pentaene-4-carboxamide] | < 100
6 | COc1ccc2c(c1)nc1nc(C(=O)Nc3ccc(=O)n(C)n3)ccn12 [5-methoxy-N-(1-methyl-6-oxo-1,6-dihydropyridazin-3-yl)-1,8,10-triazatricyclo[7.4.0.0^2,7]trideca-2(7),3,5,8,10,12-hexaene-11-carboxamide] | < 100
7 | COc1cncc(NC(=O)c2cn3c(nc4cc(OC)ccc43)s2)c1 [10-methoxy-N-(5-methoxypyridin-3-yl)-5-thia-2,7-diazatricyclo[6.4.0.0^2,6]dodeca-1(12),3,6,8,10-pentaene-4-carboxamide] | < 100
8 | COc1ccc2c(c1)sc1nc(C(=O)N3Cc4cnn(C)c4C3)cn12 [10-methoxy-4-{1-methyl-1H,4H,5H,6H-pyrrolo[3,4-c]pyrazole-5-carbonyl}-7-thia-2,5-diazatricyclo[6.4.0.0^2,6]dodeca-1(12),3,5,8,10-pentaene] | < 100
9 | COc1cncc(NC(=O)c2ccn3c(n2)nc2ccc(OC)cc23)c1 [4-methoxy-N-(5-methoxypyridin-3-yl)-1,8,10-triazatricyclo[7.4.0.0^2,7]trideca-2(7),3,5,8,10,12-hexaene-11-carboxamide] | < 100
10 | COc1ccc2c(c1)sc1nc(C(=O)Nc3ccc(-c4cccnc4)cn3)cn12 [10-methoxy-N-[5-(pyridin-3-yl)pyridin-2-yl]-7-thia-2,5-diazatricyclo[6.4.0.0^2,6]dodeca-1(12),3,5,8,10-pentaene-4-carboxamide] | < 100
11 | COc1ccc2c(c1)sc1nc(C(=O)Nc3ccc[n+]([O-])c3)cn12 [3-{10-methoxy-7-thia-2,5-diazatricyclo[6.4.0.0^2,6]dodeca-1(12),3,5,8,10-pentaene-4-amido}pyridin-1-ium-1-olate] | 100 to 500
12 | COc1ccc2c(c1)nc1sc(C(=O)Nc3cnc(C)nc3)cn12 [10-methoxy-N-(2-methylpyrimidin-5-yl)-5-thia-2,7-diazatricyclo[6.4.0.0^2,6]dodeca-1(8),3,6,9,11-pentaene-4-carboxamide] | < 100
13 | COc1ccc2c(c1)sc1nc(C(=O)Nc3cnn(C)c3)cn12 [10-methoxy-N-(1-methyl-1H-pyrazol-4-yl)-7-thia-2,5-diazatricyclo[6.4.0.0^2,6]dodeca-1(12),3,5,8,10-pentaene-4-carboxamide] | 100 to 500
14 | COc1ccc2c(c1)sc1nc(C(=O)Nc3cncnc3)cn12 [10-methoxy-N-(pyrimidin-5-yl)-7-thia-2,5-diazatricyclo[6.4.0.0^2,6]dodeca-1(12),3,5,8,10-pentaene-4-carboxamide] | < 100
15 | COc1ccc2c(c1)sc1nc(C(=O)NCc3cccnc3)cn12 [10-methoxy-N-(pyridin-3-ylmethyl)-7-thia-2,5-diazatricyclo[6.4.0.0^2,6]dodeca-1(12),3,5,8,10-pentaene-4-carboxamide] | > 500

Now from value to molecule:

Row | IC50 [nM] | Structure (SMILES)
16 | < 100 | COc1ccc2c(c1)nc1nc(C(=O)Nc3ccc(-n4ccnc4)nc3)ccn12 [N-[6-(1H-imidazol-1-yl)pyridin-3-yl]-5-methoxy-1,8,10-triazatricyclo[7.4.0.0^2,7]trideca-2(7),3,5,8,10,12-hexaene-11-carboxamide]
17 | < 100 | COc1cncc(NC(=O)c2cn3c(n2)sc2ncc(OC)cc23)c1 [11-methoxy-N-(5-methoxypyridin-3-yl)-7-thia-2,5,9-triazatricyclo[6.4.0.0^2,6]dodeca-1(12),3,5,8,10-pentaene-4-carboxamide]
18 | 100 to 500 | Cn1cc(NC(=O)c2ccn3c(n2)nc2ccccc23)ccc1=O [N-(1-methyl-6-oxo-1,6-dihydropyridin-3-yl)-1,8,10-triazatricyclo[7.4.0.0^2,7]trideca-2(7),3,5,8,10,12-hexaene-11-carboxamide]
19 | < 100 | O=C(Nc1ccc(=O)[nH]c1)c1ccn2c(n1)nc1ccccc12 [N-(6-oxo-1,6-dihydropyridin-3-yl)-1,8,10-triazatricyclo[7.4.0.0^2,7]trideca-2(7),3,5,8,10,12-hexaene-11-carboxamide]
20 | < 100 | COc1cc(NC(=O)c2ccn3c(n2)nc2ccccc23)ccn1 [N-(2-methoxypyridin-4-yl)-1,8,10-triazatricyclo[7.4.0.0^2,7]trideca-2(7),3,5,8,10,12-hexaene-11-carboxamide]
21 | < 100 | CNC(=O)c1ccc(NC(=O)c2ccn3c(n2)nc2ccccc23)cn1 [N-[6-(methylcarbamoyl)pyridin-3-yl]-1,8,10-triazatricyclo[7.4.0.0^2,7]trideca-2(7),3,5,8,10,12-hexaene-11-carboxamide]
22 | < 100 | COCCOc1cncc(NC(=O)c2ccn3c(n2)nc2ccccc23)c1 [N-[5-(2-methoxyethoxy)pyridin-3-yl]-1,8,10-triazatricyclo[7.4.0.0^2,7]trideca-2(7),3,5,8,10,12-hexaene-11-carboxamide]
23 | < 100 | COc1ccc(NC(=O)c2ccn3c(n2)nc2ccccc23)cn1 [N-(6-methoxypyridin-3-yl)-1,8,10-triazatricyclo[7.4.0.0^2,7]trideca-2(7),3,5,8,10,12-hexaene-11-carboxamide]
24 | > 500 | COc1ccc2c(c1)sc1nc(CNc3cccnc3)cn12 [N-({10-methoxy-7-thia-2,5-diazatricyclo[6.4.0.0^2,6]dodeca-1(12),3,5,8,10-pentaen-4-yl}methyl)pyridin-3-amine]
25 | < 100 | COc1cc(NC(=O)c2ccn3c(n2)nc2ccccc23)cnc1OC [N-(5,6-dimethoxypyridin-3-yl)-1,8,10-triazatricyclo[7.4.0.0^2,7]trideca-2(7),3,5,8,10,12-hexaene-11-carboxamide]
26 | < 100 | COCCOc1ccc(NC(=O)c2ccn3c(n2)nc2ccccc23)cn1 [N-[6-(2-methoxyethoxy)pyridin-3-yl]-1,8,10-triazatricyclo[7.4.0.0^2,7]trideca-2(7),3,5,8,10,12-hexaene-11-carboxamide]
27 | 100 to 500 | COc1ccc2c(c1)sc1nc(C(=O)N(C)c3cccnc3)cn12 [10-methoxy-N-methyl-N-(pyridin-3-yl)-7-thia-2,5-diazatricyclo[6.4.0.0^2,6]dodeca-1(12),3,5,8,10-pentaene-4-carboxamide]
28 | < 100 | N#Cc1cnccc1NC(=O)c1ccn2c(n1)nc1ccccc12 [N-(3-cyanopyridin-4-yl)-1,8,10-triazatricyclo[7.4.0.0^2,7]trideca-2(7),3,5,8,10,12-hexaene-11-carboxamide]
29 | < 100 | O=C(Nc1ccc(F)nc1)c1ccn2c(n1)nc1ccccc12 [N-(6-fluoropyridin-3-yl)-1,8,10-triazatricyclo[7.4.0.0^2,7]trideca-2(7),3,5,8,10,12-hexaene-11-carboxamide]
30 | < 100 | COc1nccc(NC(=O)c2ccn3c(n2)nc2ccccc23)c1C#N [N-(3-cyano-2-methoxypyridin-4-yl)-1,8,10-triazatricyclo[7.4.0.0^2,7]trideca-2(7),3,5,8,10,12-hexaene-11-carboxamide]
31 | < 100 | COc1cnc2sc3nc(C(=O)Nc4ccc(=O)n(C)n4)cn3c2c1 [11-methoxy-N-(1-methyl-6-oxo-1,6-dihydropyridazin-3-yl)-7-thia-2,5,9-triazatricyclo[6.4.0.0^2,6]dodeca-1(12),3,5,8,10-pentaene-4-carboxamide]
32 | < 100 | COc1cncc(NC(=O)c2ccn3c(n2)nc2ccc(-c4cncc(OC)c4)cc23)c1 [N,4-bis(5-methoxypyridin-3-yl)-1,8,10-triazatricyclo[7.4.0.0^2,7]trideca-2(7),3,5,8,10,12-hexaene-11-carboxamide]
33 | 100 to 500 | COc1ccc2c(c1)sc1nc(C(=O)NCCN(C)C)cn12 [N-[2-(dimethylamino)ethyl]-10-methoxy-7-thia-2,5-diazatricyclo[6.4.0.0^2,6]dodeca-1(12),3,5,8,10-pentaene-4-carboxamide]
